In patent publication US20130096310A1, “ISOQUINOLINE DERIVATIVE” (TAISHO PHARMACEUTICAL CO., LTD., priority 2010, published 2013):

Biological target: T1, CRTH2 (Homo sapiens, UniProt Q9Y5Y4)
T1 construct: expressed in transfected cells; host or cells: KB8 cells (human)
T1 sequence (Q9Y5Y4 1-395): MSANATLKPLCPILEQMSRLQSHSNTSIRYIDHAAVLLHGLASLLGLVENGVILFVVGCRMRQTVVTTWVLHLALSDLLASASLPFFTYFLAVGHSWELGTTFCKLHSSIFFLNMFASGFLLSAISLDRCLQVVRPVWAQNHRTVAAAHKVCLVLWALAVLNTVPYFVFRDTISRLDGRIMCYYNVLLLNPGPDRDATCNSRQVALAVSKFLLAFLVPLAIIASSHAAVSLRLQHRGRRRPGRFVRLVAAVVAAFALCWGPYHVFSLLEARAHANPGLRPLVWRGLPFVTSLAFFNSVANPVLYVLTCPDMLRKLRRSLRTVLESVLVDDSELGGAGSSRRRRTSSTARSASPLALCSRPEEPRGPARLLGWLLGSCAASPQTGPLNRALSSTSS
Test: CRTH2 antagonist test: inhibition of PGD2-induced intracellular calcium ion concentration increase in KB8 cells
Type: cell-based
Conditions: KB8 cells (human cells expressing CRTH2); PGD2 final concentration 100 nM; Fluo-4-AM, FDSS6000
Procedure: The antagonist activity of the compound of the present invention was considered by using the intracellular calcium ion concentration increase reaction induced when the prostaglandin D2 was added to KB8 cells, which are human cells on which CRTH2 is expressed.
Fluo-4-AM (SIGMA, final concentration: 1 μM) was added to KB8 cells, and the cells were incubated at 37° C. for 30 minutes, washed with phosphate buffer (Invitrogen), and then suspended in Hank's balanced salt solution (Invitrogen) containing a reaction buffer solution (10 mM HEPES (Invitrogen), and 1 mM calcium chloride (SIGMA)). The suspension was dispensed in a 96 well plate (Nunc) so that 2×10^5 cells/well were placed, and the compound of the present invention and PGD2 (final concentration: 100 nM) were added. The fluorescence intensity thereof was measured over time by using FDSS6000 (Hamamatsu Photonics), and thus the maximum fluorescence intensity value “d” was obtained. The same procedure was carried out in the absence of the compound, and the maximum fluorescence intensity value “e” was obtained; and the same procedure was carried out in the absence of the compound and in […], and the maximum fluorescence intensity value “f” was obtained.
The calcium ion concentration increase inhibition rate of a compound was calculated by the following calculation equation:
Inhibitory rate(%)=[1−(d−f)/(e−f)]×100
That is to say, by using calcium ion concentration increase inhibitory rates of compounds to be tested having various concentrations, the IC50 value was calculated according to a dose-dependent inhibition curve analyzed by using XLfit (IDBS) as a data analysis software, and the value was defined as an indicator of the antagonist activity.

| SMILES | IC50 [nM] |
| --- | --- |
| CC(c1ccc(C(=O)NCCc2ccc(Cl)cc2)cc1)c1ncc(CC(=O)O)c2ccccc12 (stereo not shown) [Example 1, {1-[1-(4-{[2-(4-chlorophenyl)ethyl]carbamoyl}phenyl)ethyl]isoquinolin-4-yl}acetic acid] | 4.4 |
| COc1cc(Cc2ncc(CC(=O)O)c3ccccc23)ccc1C(=O)NCCc1ccc(Cl)cc1 [Example 3, [1-(4-{[2-(4-chlorophenyl)ethyl]carbamoyl}-3-methoxybenzyl)isoquinolin-4-yl]acetic acid] | 17 |
| O=C(O)Cc1cnc(Cc2ccc(C(=O)NCCc3ccc(Cl)cc3)c(F)c2)c2ccccc12 [Example 6, [1-(4-{[2-(4-chlorophenyl)ethyl]carbamoyl}-3-fluorobenzyl)isoquinolin-4-yl]acetic acid] | 8.7 |
| O=C(O)Cc1cnc(Cc2ccc(C(=O)NCCc3ccc(Cl)cc3)c(C(F)(F)F)c2)c2ccccc12 [Example 7, {1-[4-{[2-(4-chlorophenyl)ethyl]carbamoyl}-3-(trifluoromethyl)benzyl]isoquinolin-4-yl}acetic acid] | 14 |

Further compounds by falling IC50, results first:

| IC50 [nM] | SMILES |
| --- | --- |
| 42 | Cc1cc(Cc2ncc(CC(=O)O)c3ccccc23)ccc1C(=O)NCCc1ccc(Cl)cc1 [Example 5, [1-(4-{[2-(4-chlorophenyl)ethyl]carbamoyl}-3-methylbenzyl)isoquinolin-4-yl]acetic acid] |
| 36 | O=C(O)Cc1cnc(C(F)(F)c2ccc(C(=O)NCCc3ccc(Cl)cc3)cc2)c2ccccc12 [Example 2, {1-[(4-{[2-(4-chlorophenyl)ethyl]carbamoyl}phenyl)(difluoro)methyl]isoquinolin-4-yl}acetic acid] |
| 15 | O=C(O)Cc1cnc(Cc2ccc(C(=O)NCCc3ccc(Cl)cc3)cc2F)c2ccccc12 [Example 4, [1-(4-{[2-(4-chlorophenyl)ethyl]carbamoyl}-2-fluorobenzyl)isoquinolin-4-yl]acetic acid] |
